In publication PMC11440035, “Interaction of myricetin, ampelopsin (dihydromyricetin), and their sulfate metabolites with serum albumin, cytochrome P450 (CYP2C9, 2C19, and 3A4) enzymes, and organic anion‐transporting polypeptides (OATP1B1 and OATP2B1)” (Pharmacology Research & Perspectives, 2024):

Legend:
OATP1B1 = target: T1, OATP1B1 (Homo sapiens, UniProt Q9Y6L6); experiment: Uptake of flavonoids by A431-OATP1B1 versus mock cells (APB fluorescence); format: cell-based; settings: for cellular flavonoid level in OATP1B1‐overexpressing versus mock control cells: 10 μM flavonoid, 15 min, 37°C; for substrate of OATP1B1: conclusion from uptake studies
T1 construct: expressed in transfected cells; host or cells: A431
T1 sequence (Q9Y6L6 1-691): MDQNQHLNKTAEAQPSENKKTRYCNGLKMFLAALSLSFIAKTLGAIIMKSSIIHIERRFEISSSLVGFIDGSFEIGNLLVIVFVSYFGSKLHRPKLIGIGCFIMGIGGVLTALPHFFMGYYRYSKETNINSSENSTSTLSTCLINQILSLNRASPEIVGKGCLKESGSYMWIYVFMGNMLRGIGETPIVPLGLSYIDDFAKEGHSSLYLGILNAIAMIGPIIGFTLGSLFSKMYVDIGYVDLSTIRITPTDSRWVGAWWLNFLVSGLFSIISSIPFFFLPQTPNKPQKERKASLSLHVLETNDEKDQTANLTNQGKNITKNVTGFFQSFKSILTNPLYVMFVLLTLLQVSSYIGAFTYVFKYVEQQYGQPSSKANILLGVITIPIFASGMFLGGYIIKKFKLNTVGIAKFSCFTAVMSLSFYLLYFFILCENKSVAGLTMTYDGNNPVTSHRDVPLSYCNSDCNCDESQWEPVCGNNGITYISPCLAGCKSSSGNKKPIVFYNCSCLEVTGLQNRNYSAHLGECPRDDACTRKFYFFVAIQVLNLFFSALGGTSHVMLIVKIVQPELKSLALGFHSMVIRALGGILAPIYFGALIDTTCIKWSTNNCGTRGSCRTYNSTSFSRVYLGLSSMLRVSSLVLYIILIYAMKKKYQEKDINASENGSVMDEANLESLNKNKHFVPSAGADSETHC
Procedure: (§1) Direct uptake of AMP, MYR, and their sulfate metabolites were examined in A431 cells overexpressing OATP1B1 or OATP2B1, and in their mock‐transfected controls using APB as a fluorescence enhancer. One day before the uptake measurements, the cells were seeded onto 96‐well plates at a density of 80 000 cells/well in DMEM (200 μL). The following day, the cell culture medium was removed, and the cells were rinsed thrice with PBS (200 μL). Thereafter, the cells were preincubated with HBSS (50 μL) for 5 min at 37°C. The uptake reaction was initiated by the addition of a further 50 μL of HBSS containing AMP, MYR, or their sulfate conjugates (10 μM). After incubating for 15 min at 37°C, the reaction was stopped by removing the supernatant and rinsing the cells three times with ice‐cold PBS. Then PBS buffer (200 μL) containing APB (250 μg/mL) and BSA (1 mg/mL) was added to each well.[35] The fluorescence was read using an Enspire plate reader using the wavelengths listed in Section 2.7.
(§2) The concentration‐dependent uptake of M3′S was also tested under the same conditions, except the cells were incubated with 0–10 μM M3′S for 2 min (OATP1B1) or 5 min (OATP2B1).
(§3) To test the effect of BSP (a known inhibitor of OATPs[44]) on the cellular uptake of M3′S, cells were preincubated with HBSS buffer (50 μL) with or without BSP (20 μM) for 5 min at 37°C. Thereafter, we added 50 μL of HBSS containing M3′S (final concentration: 2 μM), and cells were further incubated at 37°C for 2 min (OATP1B1) or 5 min (OATP2B1). The reaction was stopped by removing the supernatant. After washing the cells with ice‐cold PBS, a PBS buffer with APB/BSA was added. Fluorescence was determined by applying an Enspire plate reader at excitation/emission wavelengths of 480/540 nm.

[1] = system: T2, human serum albumin (HSA); experiment: Ultrafiltration: displacement of the Site I marker warfarin from HSA; format: binding; settings: flavonoid 20 μM, warfarin 1 μM, HSA 5 μM, PBS pH 7.4
T2 construct: purchased Merck (Darmstadt, Germany) A1653
Procedure: The impacts of MYR, M3′S, AMP, and A4′S on the albumin‐bound fraction of the Site I marker warfarin were examined with the previously reported ultrafiltration method.[17], [18] Briefly, samples contained warfarin (1 μM) and HSA (5 μM) without or with flavonoids (20 μM) in PBS (pH 7.4). After two washing steps of the filters (Amicon Ultra‐0.5 Centrifugal Filter Units, 30 kDa molecular weight cut‐off; Merck, Darmstadt, Germany) with water then PBS (both 500 μL), samples (500 μL) were centrifuged for 10 min (7500 g, 25°C, fixed angle rotor).
Warfarin was quantified using an HPLC system (Jasco, Tokyo, Japan) with an autosampler (AS‐4050), a binary pump (PU‐4180), a fluorescence detector (Jasco FP‐920), and the ChromNAV2 software. The concentrations of warfarin in the filtrate were directly determined by applying the previously described method.[17], [18] […] The fluorescence detection of warfarin was carried out at 310 and 390 nm excitation and emission wavelengths, respectively.

OATP2B1 = target: T3, OATP2B1 (Homo sapiens, UniProt O94956); experiment: Uptake of flavonoids by A431-OATP2B1 versus mock cells (APB fluorescence); format: cell-based; settings: for cellular flavonoid level in OATP2B1‐overexpressing versus mock control cells: 10 μM flavonoid, 15 min, 37°C; for substrate of OATP2B1: conclusion from uptake studies
T3 construct: expressed in transfected cells; host or cells: A431
T3 sequence (O94956 1-709): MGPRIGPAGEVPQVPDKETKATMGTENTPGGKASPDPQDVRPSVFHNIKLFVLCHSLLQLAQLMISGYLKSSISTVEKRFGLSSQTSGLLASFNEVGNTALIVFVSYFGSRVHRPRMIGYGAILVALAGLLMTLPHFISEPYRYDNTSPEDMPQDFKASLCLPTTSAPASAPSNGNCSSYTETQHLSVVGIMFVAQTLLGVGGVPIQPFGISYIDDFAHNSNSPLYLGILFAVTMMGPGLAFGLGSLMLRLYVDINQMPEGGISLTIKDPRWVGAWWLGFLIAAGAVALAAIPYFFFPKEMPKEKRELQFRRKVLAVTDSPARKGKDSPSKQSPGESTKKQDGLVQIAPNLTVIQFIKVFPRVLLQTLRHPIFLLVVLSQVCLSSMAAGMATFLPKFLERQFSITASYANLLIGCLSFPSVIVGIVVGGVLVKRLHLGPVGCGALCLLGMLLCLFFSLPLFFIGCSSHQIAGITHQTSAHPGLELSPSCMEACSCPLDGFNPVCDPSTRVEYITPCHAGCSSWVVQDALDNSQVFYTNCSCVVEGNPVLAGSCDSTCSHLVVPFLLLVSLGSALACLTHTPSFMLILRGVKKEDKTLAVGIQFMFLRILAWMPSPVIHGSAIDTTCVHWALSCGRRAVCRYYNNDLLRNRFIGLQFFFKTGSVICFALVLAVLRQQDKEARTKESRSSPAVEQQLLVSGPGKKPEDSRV
Procedure: as §1, §2, §3

| substrate of OATP1B1 (OATP1B1) | effect on the filtered fraction of warfarin [1] | substrate of OATP2B1 (OATP2B1) | concentration‐dependent uptake in OATP1B1‐overexpressing cells (OATP1B1; 0–10 μM, 2 min) | concentration‐dependent uptake in OATP2B1‐overexpressing cells (OATP2B1; 0–10 μM, 5 min) | SMILES | cellular flavonoid level in OATP1B1‐overexpressing versus mock control cells (OATP1B1) | cellular flavonoid level in OATP2B1‐overexpressing versus mock control cells (OATP2B1) |
| --- | --- | --- | --- | --- | --- | --- | --- |
| not substrates | not affected | not substrates | – | – | O=C1c2c(O)cc(O)cc2OC(c2cc(O)c(OS(=O)(=O)O)c(O)c2)C1O (stereo not shown) [A4′S, ampelopsin‐4′‐O‐sulfate] | did not show statistically significant differences | did not show statistically significant differences |
| not substrates | not affected | not substrates | – | – | O=C1c2c(O)cc(O)cc2O[C@H](c2cc(O)c(O)c(O)c2)[C@H]1O [AMP, ampelopsin] | did not show statistically significant differences | did not show statistically significant differences |
| substrate | moderate increases | substrate | saturable uptake | saturable uptake | O=c1c(O)c(-c2cc(O)c(O)c(OS(=O)(=O)O)c2)oc2cc(O)cc(O)c12 [M3′S, myricetin‐3′‐O‐sulfate] | more than two‐fold | almost five‐fold |

| SMILES | substrate of OATP1B1 (OATP1B1) | effect on the filtered fraction of warfarin [1] | substrate of OATP2B1 (OATP2B1) | concentration‐dependent uptake in OATP1B1‐overexpressing cells (OATP1B1; 0–10 μM, 2 min) | concentration‐dependent uptake in OATP2B1‐overexpressing cells (OATP2B1; 0–10 μM, 5 min) | cellular flavonoid level in OATP1B1‐overexpressing versus mock control cells (OATP1B1) | cellular flavonoid level in OATP2B1‐overexpressing versus mock control cells (OATP2B1) |
| --- | --- | --- | --- | --- | --- | --- | --- |
| O=c1c(O)c(-c2cc(O)c(O)c(O)c2)oc2cc(O)cc(O)c12 [MYR, myricetin] | not substrates | moderate increases | not substrates | – | – | did not show statistically significant differences | did not show statistically significant differences |
